Measured values: patent US20250091994A1, “RAS/RAF BINDING INHIBITOR COMPOUND” (NATIONAL UNIVERSITY CORPORATION KOBE UNIVERSITY, priority 2021, published 2025)

Tests used:
[1] = system: small cell lung cancer cells SHP77 (K-RasG12V); test: Cell growth inhibition, suspension cells SHP77; type: cell-based; conditions: Homo sapiens, 1 μM, 72 hours, read-out: SHP77 (KRasG12V) % inhibition at 1 μM
Method in brief: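 Suspension cells, 2 to 4×10^4 per well, cultured with compound in medium with 0.5% FBS (1% DMSO final) for 72 h at 37° C, 5% CO2. Viable cells counted with Cell Counting Reagent; inhibition calculated relative to controls.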

[2] = system: Vemurafenib-resistant malignant melanoma cells A375R (BRafV600E); test: Cell growth inhibition, drug-resistant malignant melanoma A375R; type: cell-based; conditions: Homo sapiens, in the presence of 1 μM PLX (Vemurafenib), 72 hours
Description: The human malignant melanoma cell lines A375 and HT 144, each having BRafV600E mutation, were cultured in a medium containing 10% FBS at 37° C. in the presence of 5% CO2. At the time point in which the cells became confluent, 1 μM Vemurafenib, a BRaf inhibitor, was added to the medium, and the cells were then cultured in the presence of Vemurafenib for 1 month or more (during which the medium was exchanged every 1 week), so as to acquire Vemurafenib-resistant malignant melanoma cells A375R and HT 144R. The resulting resistant cells were suspended in a medium containing 10% FBS, and then seeded on a 96-well plate to an amount of 1 to 2×10^4 cells/well. The cells were cultured at 37° C. in the presence of 5% CO2 overnight. Thereafter, the medium was exchanged with a medium containing 0.5% FBS, to which each compound solution (final DMSO concentration: 1%) and 1 μM Vemurafenib had been added, and the cells were then cultured at 37° C. in the presence of 5% CO2 for 72 hours.
Thereafter, the number of viable cells was measured using Cell Counting Reagent (Nacalai Tesque) in accordance with the manufacturer's instructions. Inhibition by the test compound was determined according to the following equation: […]
Hereafter, Inhibition (%) by 3.3 μM compound is shown.

[3] = biological target: GTPγS-bound human HRasG12V / human c-Raf-1 Ras binding domain (RBD) (Homo sapiens (Human), UniProt P01112, G12V); test: Ras-Raf binding inhibition ELISA; conditions: anti-HRas antibody C-20; read-out: ELISA IC50 (μM): 1st Ab_C-20
Chain of GTPγS-bound human HRasG12V / human c-Raf-1 Ras binding domain (RBD) (P01112 whole entry G12V, the tested form may be a part): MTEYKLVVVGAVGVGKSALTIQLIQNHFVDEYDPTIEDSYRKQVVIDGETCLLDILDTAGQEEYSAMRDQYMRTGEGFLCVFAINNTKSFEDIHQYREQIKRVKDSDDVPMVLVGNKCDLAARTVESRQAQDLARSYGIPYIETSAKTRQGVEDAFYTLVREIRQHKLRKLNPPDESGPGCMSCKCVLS
Method in brief: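 GST-c-Raf-1 RBD (aa 50-131) immobilized on glutathione plates, then GTPγS-loaded full-length HRasG12V added with compound (final 10% DMSO), 1 h at 30 °C, pH 7.4 Tris buffer. Bound Ras detected by anti-HRas antibody (C-20 or 259) and HRP secondary, TMB read at OD450; IC50 from inhibition.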

`CC(=O)N1/C(=C\c2nc3cc(C(=O)N4CCOCC4)ccc3s2)C(=O)c2ccccc21` [Example 47, (Z)-1-acetyl-2-((5-(morpholine-4-carbonyl)benzo [d]thiazol-2-yl)-methylene)-indolin-3-one] was tested, and the inhibition at 1 µM [1] was 61%, the inhibition at 3.3 µM [2] was 90% and the IC50 [3] was 3.9 µM.
